# From PubChem BioAssay AID1421 (Emory University Molecular Libraries Screening Center, 2008)
# Calls of active or inactive are those of the source. How the calls were made is not given here.
# Target: Prostaglandin E2 receptor EP2 subtype (Homo sapiens) (UniProt P43116)
# Assay: EP2 receptor modulators, dose response, cell-based, human EP2, PGE2 EC50 shift (AID 1421)
# Conditions: EP2-expressing cells, PGE2 EC50 shift by compound
# Chain of Prostaglandin E2 receptor EP2 subtype (Homo sapiens) (P43116 whole entry, looked up): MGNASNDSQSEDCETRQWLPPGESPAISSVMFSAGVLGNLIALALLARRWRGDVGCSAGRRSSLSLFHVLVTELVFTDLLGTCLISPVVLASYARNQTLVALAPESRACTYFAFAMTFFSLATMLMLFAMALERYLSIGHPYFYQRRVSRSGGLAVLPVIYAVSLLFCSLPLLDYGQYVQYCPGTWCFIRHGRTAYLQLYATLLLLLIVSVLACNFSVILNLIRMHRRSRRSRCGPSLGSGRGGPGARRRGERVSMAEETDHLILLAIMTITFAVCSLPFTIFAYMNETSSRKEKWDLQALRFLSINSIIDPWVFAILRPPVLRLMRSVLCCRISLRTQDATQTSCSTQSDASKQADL
row,Compound,outcome
1,CCOC(=O)c1c(NC(=O)c2ccoc2C)sc(C)c1C,active
2,C/C(CCc1oc2ccc(Cl)cc2c1-c1ccc(C)o1)=N\O,active
3,C=CCSc1nc2ccccc2n1S(=O)(=O)c1ccc(Cl)cc1,active
4,CCCSc1ncnc2c1oc1ccccc12,active
5,Cc1ccc(C(=O)Nc2ccccc2C(=O)NCc2ccccc2)cc1,active

# Second part, the compound after the results:
row,outcome,Compound
1,active,CN1CCCN(C(=O)Cc2c(Cl)cccc2Cl)c2nc3ccccc3nc21
2,active,Cn1c(=O)c(NC2CCCCC2)c2c3c(cccc31)C(=O)c1ccccc1-2
3,active,C/C(=N\O)C(=O)OC1CC(C)CCC1C(C)C (stereo not given)
4,active,CCOc1ccccc1NC1c2ccccc2C(=O)N1c1ccc(C)cn1 (stereo not given)
5,active,N#Cc1cn(-c2ccccc2)nc1-c1cc2ccccc2oc1=O
6,active,CCOP(=O)(OCC)c1nc(-c2cccc3ccccc23)oc1NCc1ccc(OC)cc1
7,active,O=c1[nH]c2ccc(Cl)cc2c(-c2ccccc2)c1N1CCOCC1

# Same assay, conditions: EP2-expressing cells, PGE2 EC50 shift by compound; measured here: PGE2 EC50 at 6.7 uM compound
row,Compound,PGE2 EC50 with compound
1,CCOC(=O)C(CC)Sc1ncnc2c1nnn2-c1ccc(F)cc1 (stereo not given),330 pM
2,CCOC(=O)c1c(NC(=O)c2ccoc2C)sc(C)c1C,940 pM
3,COc1c(O)cc2oc3cc(O)c(CC=C(C)C)c(O)c3c(=O)c2c1CC=C(C)C,2620 pM
4,CCCOc1ccccc1Cn1c(=O)oc2ccc(C)cc21,2640 pM
5,COc1ccc(Oc2cc(C(F)(F)F)nc(N(C)C)n2)cc1,630 pM
6,CCc1cc2cc3c(cc2nc1SCC(=O)OC(C)C)OCO3,700 pM
7,Cc1ccc(Cl)cc1NC1=NC(=S)N(C(C)C)C12CCCCC2,770 pM
8,C=CCOc1ccccc1CNc1ccccc1C,1420 pM
9,Cc1cccc(Oc2nc(-c3ccccc3)cc(C)c2S(C)(=O)=O)c1C,2560 pM
10,CNC[C@H](O)c1ccc(O)c(O)c1,650 pM
11,Cc1noc(C)c1CSc1nc2sc3c(c2c(=O)n1C)CCCC3,1460 pM
12,COc1cc(O)c2c(=O)cc(C)oc2c1CC=C(C)C,2640 pM
13,Cc1noc(C)c1CSc1nc2ccccc2c(=O)n1-c1ccc(Cl)cc1,830 pM
14,Cc1cc(-c2ccccc2)nc2cc(C(=O)N(Cc3ccccc3)Cc3ccccc3)nn12,1030 pM
15,C/C(=C\c1ccc(C(=O)O)cc1)c1ccc2c(c1)C(C)(C)CCC2(C)C,790 pM
16,C/C(CCc1oc2ccc(Cl)cc2c1-c1ccc(C)o1)=N\O,810 pM
17,CCn1nnc(-c2ccccc2NC(=O)c2cc(OC)cc(OC)c2)n1,950 pM
18,Cc1ccc(C(Sc2ccccc2)C(Cn2cncn2)C(=O)c2ccccc2)cc1 (stereo not given),970 pM
19,Cc1ccc(S(=O)(=O)n2c3ccc(F)cc3c3nc(C)sc32)cc1,840 pM
20,CCOC(=O)c1c(NC(=O)c2cccnc2)sc(C)c1C,1250 pM
21,O=c1[nH]c(CSc2ncc(-c3ccc(F)cc3)n2Cc2ccco2)nc2ccccc12,710 pM
22,Cc1cc(Oc2ccccc2)nc(NCc2ccccc2)n1,630 pM

row,Compound,PGE2 EC50 with compound
1,COC(=O)c1c(C)nc2ccccc2c1-c1ccccc1,1540 pM
2,C=CCSc1nc2ccccc2n1S(=O)(=O)c1ccc(Cl)cc1,850 pM
3,COc1ccc2c(-c3ccccc3)cc(N3CCOCC3)nc2c1,740 pM
4,CC(C)CCn1c(N2CCN(c3cccc(Cl)c3)CC2)nc2c1c(=O)[nH]c(=O)n2C,930 pM
5,Cc1nnc(SCC(=O)N2c3ccccc3C(C)(c3ccccc3)CC2(C)C)s1 (stereo not given),850 pM
6,O=c1nc(-c2ccccc2)cc(-c2ccccc2)[nH]1,2210 pM
7,CCOC(=O)CCCCCCCCCCCCC1C=CCC1 (stereo not given),960 pM
8,COc1cc(C2Oc3cc(C4Oc5cc(O)cc(O)c5C(=O)C4O)ccc3OC2CO)ccc1O (stereo not given),1150 pM
9,COc1ccc(C(=O)NCCCN2CCOCC2)cc1OC,990 pM
10,C=CCn1c(CCc2cc(C(C)(C)C)c(O)c(C(C)(C)C)c2)n[nH]c1=S,1140 pM
11,CO/N=C/C(=N\Nc1ccccc1)C(=O)c1ccccc1,590 pM
12,CCCCOc1ccccc1Cn1c(=O)oc2ccccc21,810 pM
13,CCCSc1ncnc2c1oc1ccccc12,690 pM
14,Cc1ccc2c(c1)-c1nc3ccccc3cc1C2=NC1CCCCC1,1410 pM
15,C[C@H](CN(C)C)C(=O)c1ccccc1C(=O)O,1410 pM
16,Cc1cc(-c2sccc2C)nc(-n2cccc2)n1,2500 pM
17,Cc1ccc(C(=O)Nc2ccccc2C(=O)NCc2ccccc2)cc1,1420 pM
18,Cc1ccc(C)n1-n1c(C)nc2scc(-c3cccs3)c2c1=O,1020 pM
19,CC(=O)O[C@H]1C[C@@H](OC(C)=O)C(C)(C)C2C[C@@H](OC(C)=O)[C@]3(C)C([C@H](OC(C)=O)C[C@@]4(C)[C@H](c5ccoc5)OC(=O)[C@H]5O[C@]543)[C@]21C (stereo not given in full),1050 pM
20,O=C(c1cc2sccc2n1Cc1ccc(F)cc1)N1CCCc2ccccc21,1560 pM
21,C=CCSc1ncnc2sc(C)c(C)c12,1300 pM

# Next, values leading:
row,PGE2 EC50 with compound,Compound
1,780 pM,NC(N)=Nc1nc(CSCC/C(N)=N/S(N)(=O)=O)cs1
2,3070 pM,CCc1cc2cc(C)cc(C)c2nc1SCC(=O)N1CCCC1
3,1380 pM,C[C@H](CCC(=O)O)[C@@H]1CC[C@@H]2[C@H]3CC[C@@H]4C[C@H](O)CC[C@@]4(C)[C@@H]3CC[C@]21C
4,2630 pM,COc1ccc(C2=Nn3c(nnc3-c3ccccc3)SC2)cc1OC
5,1370 pM,NC(=O)CSc1nnc(-c2cccc(S(=O)(=O)N3CCOCC3)c2)n1C1CCCCCC1
6,900 pM,CN1CCCN(C(=O)Cc2c(Cl)cccc2Cl)c2nc3ccccc3nc21
7,960 pM,CCOC(=O)c1ccccc1NC(=O)CSc1ncc(C(=O)OCC)c(N)n1
8,1060 pM,CCOc1ccccc1COC(=O)c1cccc(-n2cnnn2)c1
9,900 pM,CCOC(=O)c1c(NC(=O)c2c(Br)cnn2CC)sc(C)c1C
10,670 pM,COc1ccc(C)cc1NC(=O)C1CC(=O)OC12CCCCC2 (stereo not given)
11,1020 pM,Cc1c(OCc2ccccc2)c(=O)ccn1Cc1ccc(Cl)cc1
12,680 pM,Cc1ccc(-n2c(Cc3cccc4ccccc34)n[nH]c2=S)c(C)c1
13,970 pM,O=C(O)/C=C/C(O)c1ccc(Cl)cc1 (stereo not given)
14,550 pM,Cn1c(=O)c(NC2CCCCC2)c2c3c(cccc31)C(=O)c1ccccc1-2
15,310 pM,Cc1ccc(C)c(CN2C(=O)C(C)Oc3ccc(C)cc32)c1 (stereo not given)
16,1070 pM,O=c1[nH]c2ccc(Br)cc2c(-c2ccccc2)c1N1CCOCC1
17,850 pM,CCCCOC(=O)n1c(=S)oc2cc(Cl)ccc21
18,2760 pM,c1ccc(Cc2nnc(Sc3ccccc3)c3ccccc23)cc1
19,550 pM,COc1ccccc1NC(=O)CSc1nnc(Cn2nnc(-c3ccccc3)n2)n1-c1ccccc1
20,1250 pM,NCCc1c(-c2ccccc2)n(-c2ccccc2)c2ccccc12

row,PGE2 EC50 with compound,Compound
1,2780 pM,Cc1cc(Br)c2nc3c(c(C(=O)O)c2c1)CCCCC3
2,880 pM,C/C(=N\O)C(=O)OC1CC(C)CCC1C(C)C (stereo not given)
3,1450 pM,O=C(CO/N=C/c1ccccc1)N1c2ccccc2Oc2ccccc21
4,1080 pM,CCCCCCn1c(SCC(C)C)nc2c1c(=O)[nH]c(=O)n2C
5,990 pM,Clc1ccccc1Cn1c(/C=C/c2ccco2)nc2ccccc21
6,1000 pM,CCOC(=O)c1c(NC(=O)c2ccncc2)sc(C)c1C
7,1420 pM,O=c1c2ccccc2c(-c2ccccc2)nn1-c1ccc(Cl)c(Cl)c1
8,1560 pM,CCCCCCC/C=C\CCCCCCCCC(=O)O
9,1230 pM,CCc1nc(N2CCC(C)CC2)c2oc3ccccc3c2n1
10,1550 pM,Cc1ccccc1Nc1c(-c2ccccn2)nc2ccccn12
11,1010 pM,O=c1c2c(n3nnnc3n1-c1ccccc1)-c1ccccc1CC21CCCC1
12,890 pM,CCOc1ccccc1NC1c2ccccc2C(=O)N1c1ccc(C)cn1 (stereo not given)
13,940 pM,CCOC(=O)c1c(NC(=O)c2ccc(Br)o2)sc(C)c1CC
14,990 pM,N#Cc1cn(-c2ccccc2)nc1-c1cc2ccccc2oc1=O
15,940 pM,COC(=O)c1c(NC(=O)Cc2cccs2)sc2c1CCC(C)C2 (stereo not given)
16,720 pM,CCOP(=O)(OCC)c1nc(-c2cccc3ccccc23)oc1NCc1ccc(OC)cc1
17,790 pM,CCOC(=O)C1=C(C)N(C)C(C)=C(C(=O)OCC)C1c1ccsc1
18,360 pM,COc1ccc(C(=O)O)cc1NC(=S)NC(=O)c1ccc(-c2ccc(Cl)cc2)o1
19,5610 pM,CCC(C)(C)c1ccc(OCC(=O)N(C)C)c(C(C)(C)CC)c1
20,690 pM,CCCCOc1ccccc1C1C(C(=O)OC)=C(C)N(C)C(C)=C1C(=O)OC

row,PGE2 EC50 with compound,Compound
1,1130 pM,CCOC(=O)CSc1nnc2n(C3CCCCC3)c(=O)c3c4c(sc3n12)CCCC4
2,1210 pM,CC(C)n1cc(-c2ccc(Cl)cc2)cc(C#N)c1=O
3,700 pM,COc1ccc(-c2cc(C(F)(F)F)nc(NC3CCCC3)n2)cc1OC
4,2550 pM,O=C(O)CSc1cc(-c2ccccc2)nc2ccccc12
5,2810 pM,CC(=O)CSc1nc(-c2cccs2)c(C#N)c(=O)[nH]1
6,1060 pM,CCSc1ccccc1C(=O)Nc1ccc([N+](=O)[O-])cc1OC
7,700 pM,COc1ccc(N2CCN(c3nc4c(c(=O)[nH]c(=O)n4C)n3Cc3cccc(C)c3)CC2)cc1
8,940 pM,Cc1cccc(Cn2c(N3CCN(c4ccccc4)CC3)nc3c2c(=O)n(C)c(=O)n3C)c1
9,730 pM,c1ccc(-c2noc(CN3CCN(C(c4ccccc4)c4ccccc4)CC3)n2)cc1
10,1170 pM,COc1cccc(/C=N/c2oc(-c3ccccc3)cc2C#N)c1O
11,760 pM,CNc1oc(-c2ccc(Cl)cc2)nc1P(=O)(c1ccccc1)c1ccccc1
12,2450 pM,CC(=O)N1c2ccccc2C(C)(c2ccccc2)CC1(C)C (stereo not given)
13,1210 pM,O=S(=O)(c1ccccc1)c1nc(-c2ccco2)oc1N1CCCCCC1
14,1130 pM,O=c1[nH]c2ccc(Cl)cc2c(-c2ccccc2)c1N1CCOCC1
15,710 pM,Cc1cccc(Cn2c(Cc3ccccc3)nc3ccccc32)c1
16,810 pM,c1ccc(Cc2nc3ccccc3n2Cc2ccccc2)cc1
17,990 pM,Cc1cccc2cc(CN(Cc3cccs3)C(c3nnnn3C3CCCC3)C(C)C)c(=O)[nH]c12 (stereo not given)
18,1570 pM,CCCCc1n[nH]c(=S)n1Cc1ccc(Cl)cc1
19,640 pM,NS(=O)(=O)c1ccc(NCc2cnc3ccccc3n2)cc1
20,730 pM,Cc1ccc(Nc2cc(C)nc3c(C)ccc([N+](=O)[O-])c23)cc1
